# Legend:
# Pyricularia oryzae = test: microbe, parasite or virus in culture; type: cell-based; details: read-out: MIC (Minimum Inhibitory Concentration)
Structure (SMILES),melting point [°C],MIC (Pyricularia oryzae) [µg/mL]
CC(C)Nc1c(-c2c(F)cc(F)cc2F)c(Cl)nc2ccnn12,143,–
CC(C)N(C)c1c(-c2c(F)cc(F)cc2F)c(Cl)nc2ccnn12,109,–
Fc1cc(F)c(-c2c(Cl)nc3ccnn3c2NC2CCCC2)c(F)c1,128,–
CCN(CC)c1c(-c2c(F)cc(F)cc2F)c(Cl)nc2ccnn12,90,–
"Fc1cc(F)c(-c2c(Cl)nc3ccnn3c2NCC(F)(F)F)c(F)c1 [Example I-7, [5-chloro-6-(2,4,6-trifluoro-phenyl)-pyrazolo[1,5-α]pyrimidin-7-yl]-(2,2,2-trifluoro-ethyl)-amine]",–,0.78

# Source: patent publication US6730680B2 (priority 1999, dated 2004)
